molecular target: Human CGRP Receptor (Homo sapiens, UniProt O60894+Q16602); experiment: Human CGRP Binding
Sequence (Q16602 23-461): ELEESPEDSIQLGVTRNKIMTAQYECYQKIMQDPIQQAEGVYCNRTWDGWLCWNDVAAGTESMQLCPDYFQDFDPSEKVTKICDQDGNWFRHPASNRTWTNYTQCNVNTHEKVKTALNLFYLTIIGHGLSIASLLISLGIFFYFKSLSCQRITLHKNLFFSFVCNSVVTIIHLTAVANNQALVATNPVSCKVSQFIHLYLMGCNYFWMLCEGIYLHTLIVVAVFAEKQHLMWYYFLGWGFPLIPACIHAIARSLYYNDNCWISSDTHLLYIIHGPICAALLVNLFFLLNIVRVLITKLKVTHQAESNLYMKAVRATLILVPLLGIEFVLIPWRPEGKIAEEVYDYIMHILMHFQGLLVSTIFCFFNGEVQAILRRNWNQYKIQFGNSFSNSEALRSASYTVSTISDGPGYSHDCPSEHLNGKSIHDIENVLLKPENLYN
Sequence (O60894 27-148): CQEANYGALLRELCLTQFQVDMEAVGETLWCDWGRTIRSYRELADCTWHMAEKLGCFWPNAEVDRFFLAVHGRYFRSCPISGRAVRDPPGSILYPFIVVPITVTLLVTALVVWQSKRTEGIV

Row | Structure (SMILES) | IC50 [nM]
1 | N[C@@H]1c2nccnc2C(CC(=O)N2CCC(n3c(=O)[nH]c4ncccc43)CC2)=CC[C@H]1c1cccc(F)c1F [Example 2, 1-(1-(2-((5S,6S,Z)-5-amino-6-(2,3-difluorophenyl)-6,7-dihydro-5H-cyclohepta[b]pyrazin-9-yl)acetyl)piperidin-4-yl)-1H-imidazo[4,5-b]pyridin-2(3H)-one] | 470
2 | CC(C)(C)OC(=O)N[C@@H]1c2nccnc2[C@H](OC(=O)N2CCC(n3c(=O)[nH]c4ncccc43)CC2)CC[C@H]1c1cccc(F)c1F [Example 3, (5R,8S,9S)-9-(tert-butoxycarbonylamino)-8-(2,3-difluorophenyl)-6,7,8,9-tetrahydro-5H-cyclohepta[b]pyrazin-5-yl 4-(2-oxo-2,3-dihydro-1H-imidazo[4,5-b]pyridin-1-yl)piperidine-1-carboxylate] | 1.1
3 | N[C@@H]1c2nccnc2[C@H](NC(=O)N2CCC(n3c(=O)[nH]c4ncccc43)CC2)CC[C@H]1c1cccc(F)c1F [Example 7, N-((5R,8S,9S)-9-amino-8-(2,3-difluorophenyl)-6,7,8,9-tetrahydro-5H-cyclohepta[b]pyrazin-5-yl)-4-(2-oxo-2,3-dihydro-1H-imidazo[4,5-b]pyridin-1-yl)piperidine-1-carboxamide] | 1.1
4 | N[C@@H]1c2scnc2[C@H](OC(=O)N2CCC(n3c(=O)[nH]c4ncccc43)CC2)CC[C@H]1c1cccc(F)c1F [Example 8, (4R,7S,8S)-8-amino-7-(2,3-difluorophenyl)-5,6,7,8-tetrahydro-4H-cyclohepta[d]thiazol-4-yl 4-(2-oxo-2,3-dihydro-1H-imidazo[4,5-b]pyridin-1-yl)piperidine-1-carboxylate] | 0.095
5 | N[C@@H]1c2sc(C(F)(F)F)nc2[C@H](OC(=O)N2CCC(n3c(=O)[nH]c4ncccc43)CC2)CC[C@H]1c1cccc(F)c1F [Example 9, (4R,7S,8S)-8-amino-7-(2,3-difluorophenyl)-2-(trifluoromethyl)-5,6,7,8-tetrahydro-4H-cyclohepta[d]thiazol-4-yl 4-(2-oxo-2,3-dihydro-1H-imidazo[4,5-b]pyridin-1-yl)piperidine-1-carboxylate] | 0.13

More lines, in order of falling IC50, values ahead:

Row | IC50 [nM] | Structure (SMILES)
6 | 910 | CC(C)(C)OC(=O)N[C@@H]1c2nccnc2[C@H](NC(=O)N2CCC(n3c(=O)n(COCC[Si](C)(C)C)c4ncccc43)CC2)CC[C@H]1c1cccc(F)c1F [Example 6, tert-butyl (5S,6S,9R)-6-(2,3-difluorophenyl)-9-(4-(2-oxo-3-((2-(trimethylsilyl)ethoxy)methyl)-2,3-dihydro-1H-imidazo[4,5-b]pyridin-1-yl)piperidine-1-carboxamido)-6,7,8,9-tetrahydro-5H-cyclohepta[b]pyrazin-5-ylcarbamate]
7 | 570 | CC(C)(C)OC(=O)N[C@@H]1c2nccnc2C(CC(=O)N2CCC(n3c(=O)[nH]c4ncccc43)CC2)=CC[C@H]1c1cccc(F)c1F [Example 1, tert-butyl (5S,6S,Z)-6-(2,3-difluorophenyl)-9-(2-oxo-2-(4-(2-oxo-2,3-dihydro-1H-imidazo[4,5-b]pyridin-1-yl)piperidin-1-yl)ethyl)-6,7-dihydro-5H-cyclohepta[b]pyrazin-5-ylcarbamate]
8 | 74 | CC(C)(C)OC(=O)N[C@@H]1c2nccnc2[C@H](NC(=O)N2CCC(n3c(OCOCC[Si](C)(C)C)nc4ncccc43)CC2)CC[C@H]1c1cccc(F)c1F [Example 5, tert-butyl (5S,6S,9R)-6-(2,3-difluorophenyl)-9-(4-(2-((2-(trimethylsilyl)ethoxy)methoxy)-1H-imidazo[4,5-b]pyridin-1-yl)piperidine-1-carboxamido)-6,7,8,9-tetrahydro-5H-cyclohepta[b]pyrazin-5-ylcarbamate]
9 | 0.11 | N[C@@H]1c2nccnc2[C@H](OC(=O)N2CCC(n3c(=O)[nH]c4ncccc43)CC2)CC[C@H]1c1cccc(F)c1F [Example 4, (5R,8S,9S)-9-amino-8-(2,3-difluorophenyl)-6,7,8,9-tetrahydro-5H-cyclohepta[b]pyrazin-5-yl 4-(2-oxo-2,3-dihydro-1H-imidazo[4,5-b]pyridin-1-yl)piperidine-1-carboxylate]

— patent US8748429B2, “CGRP receptor antagonists” (Bristol-Myers Squibb Company, priority 2011, dated 2014)
